These results are taken from paper PMC8333425, “Discovery of a dual Ras and ARF6 inhibitor from a GPCR endocytosis screen” (Nature Communications, 2021).

The subject of one assay is BRAF. As to the kind of experiment: Western blot of ERK1/2 phosphorylation induced by BRAF (BRAF-WT / BRAF-V600E). It is filed as cell-based, human. The protocol: HEK293SL cells (10^5 cells per well) were seeded in a poly-L-lysine-coated six-well plate and transiently transfected with 3 μg Flag-AT1R, HA-B2R or HA-β2AR and/or 500 ng Flag-MEK1-WT, Flag-MEK1-DD, Flag-BRAF-WT, Flag-BRAF-V600E, Flag-K-Ras-WT, Flag-K-Ras-G12V, HA-ARF6-WT, or HA-ARF6-T27N. Gαq/11 KO and βarr1/2 KO cells were seeded onto 100 mm dishes at a density of 10^6 cells per dish. Next day, cells were transfected with 3 μg AT1R alone or along with 500 ng of β-arrestin2 using PEI. After 18 h of transfection, cells were detached and re-seeded onto poly-L-lysine coated 12-well plates (~1.5–2 × 10^5cells/well) for subsequent experiments. Forty-eight hours post transfection, in a 37 °C water bath, cells were serum-starved for 30 min, pretreated with DMSO (0.1%) or compound 21/Rasarfin (50 µM or at indicated concentrations) for 30 min, then stimulated or not with the indicated ligand [AngII (1 µM), BK (1 µM), Iso (10 µM) or EGF (100 ng/ml)] at indicated times. Cells were put on ice, washed with PBS and solubilized in 2x laemmli buffer (250 mM Tris–HCl pH 6.8, 2% SDS (w/v), 10% glycerol (v/v), 0.01% bromophenol blue (w/v) and 5% β-mercaptoethanol (v/v)) by heating at 65 °C for 15 min. Lysates were resolved on 10 or 14% SDS-PAGE, transferred to nitrocellulose membranes and immunoblotted for p-ERK1/2, ERK1/2, p-Akt, Akt, HA, Myc, β-actin or FLAG. ImageLab 5.2 software was used to quantify the digital blots as fold of the phosphorylated protein over total protein, which were then normalized as indicated in the figure legends. Uncropped immunoblots are provided in the Source Data file.
(In general: A western blot detects proteins with antibodies after separation by electrophoresis.)

Another assay concerns the target T1, ARF6 (Homo sapiens, UniProt P62330).
T1 construct: expressed in transfected cells; host or cells: HEK293SL
Put plainly: GST-GGA3-PBD pull-down of AT1R-mediated HA-ARF6 activation. In kind it is cell-based. The following applies: for ARF6-GTP/ARF6, GST-GGA3-PBD pull down: Comp 21 50 μM, individual experiments. The protocol: HEK293 cells were transfected with a BRET sensor that monitors the interaction between β-arrestins and the β-appendage of AP-2 (Fig. 2a)[26],[33]. […] The small GTPase ARF6, which binds β-arrestins and facilitates AP-2 and clathrin recruitment at the PM, is also necessary for CCPs initiation and receptor internalization. Therefore, ARF6 activity was assessed using the protein-3 binding domain (PBD) of the golgi-associated, gamma adaptin ear-containing, ARF-binding protein 3 (GGA3) fused to GST (GST-GGA3-PBD) in a pull-down assay, which allows the detection of GTP-bound ARF6 in cells[34] (Fig. 2b). […] This inhibition was selective for ARF6 since 21 had no effect on AT1R-dependent ARF1 activation (Supplementary Fig. 2a). We also devised a BRET assay to quantitatively assess 21’s action on ARF activity. The ARF BRET assay was created using the GGA3-PBD fused to RlucII (GGA3-PBD-RlucII) and the rGFP anchored at the PM (rGFP-CAAX) (Supplementary Fig. 3a). […] 21 blocked ARF’s activation by 40–60% following AT1R stimulation (Fig. 2c).
Activation of ARF1, ARF6, Ras, and Rho were assessed by using GST pull-down assays. HEK293SL cells were transiently transfected with 3 µg AT1R-flag only (Ras and Rho) or along with 500 ng HA-ARF6 (ARF6) or HA-ARF1 (ARF1). Forty-eight hours later, the HEK293 or MDA-MB-231 cells were serum-starved for 4 h with DMEM containing 20 mM HEPES then pretreated with DMSO or Rasarfin (50 µM) for 30 min. Cells were then stimulated with 1 µM AngII or 100 ng/ml EGF for 0 and 2 min. Cells were then washed once with ice-cold PBS and lysed for 30 min at 4 °C in 300 µl of lysis buffer (pH 7.5, 50 mM Tris-HCl, 140 mM NaCl, 5 mM MgCl2, 10% glycerol (v/v), 1% Nonidet P-40 (v/v), 1 mM dithiothreitol) supplemented with protease inhibitors (1 mM phenylmethyl-sulfonyl fluoride (PMSF), 10 µg/ml leupeptin, 5 µg/ml aprotinin, 1 µg/ml pepstatin A) and phosphatase inhibitors (20 mM NaF, 0.025 mM pervanadate). […] ImageLab 5.2 software was used to quantify the digital blots as fold of the amount of pulled down protein over total protein. […]

Several values for one entry are separate records, joined by “and”; a condition that tells them apart may be missing. Identical values can stand only once.

T1 sequence (P62330 whole entry, species assumed): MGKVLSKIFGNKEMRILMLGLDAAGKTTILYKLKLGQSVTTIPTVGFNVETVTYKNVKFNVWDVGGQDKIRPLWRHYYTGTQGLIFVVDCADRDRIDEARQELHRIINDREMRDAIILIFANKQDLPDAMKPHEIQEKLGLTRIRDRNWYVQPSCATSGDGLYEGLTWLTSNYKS

One may read the inhibition as the change of the read-out against control, counted positive when it falls. Regarding `CC(C)C(=O)N1CCN(c2ccc(NC(=O)c3cc4ccccc4o3)cc2Cl)CC1` [Compound 21], the “ERK1/2 activation induced by overexpression of BRAF-V600E” value in the assay on BRAF (50 μM) is “nor did it block ERK1/2 activation”. Also, the “ERK1/2 phosphorylation relative to mock (S_Fig.4d)” value is 3.464 and 4.631 and 3.5221 and 2.836 in the assay on BRAF (Flag-BRAF-V600E, listed as Comp 21); 1 and 1.273 and 1.416 in the assay with BRAF (Flag-BRAF-WT, listed as Comp 21); 1 in the assay with BRAF (mock). Further, at ARF6 (50 μM, read-out: inhibition of ARF6-GTP (AngII-stimulated cells, pull-down)), the inhibition at 50 µM was above 70%. In addition, the “ARF6-GTP/ARF6, GST-GGA3-PBD pull down” value on ARF6 (AngII) is 0.1415 and 0.1921 and 0.09307 and 0.2014; on ARF6 (Control (no AngII)), 0.0894 and 0.1773 and 0.03131 and 0.1335.
